This note sets out measurements from patent publication US8604214B2, “Compounds for alleviation, prevention or treatment of osteoporosis, the preparation thereof and pharmaceutical composition comprising the same” (Ewha University-Industry Collaboration Foundation, priority 2011, dated 2013).

Format in all cases: cell-based, ICR mice
Test [1] has as its system BMM cells on dentine slices (bone resorption of osteoclasts). As to the kind of experiment: Pit formation assay on dentine slices. Conditions: 50 ng/ml RANKL, 30 ng/ml M-CSF and 10 μM K11, six days, compared to RANKL; FIGS. 3B and 3C. Here is the method:
BMM cells were cultured for six days on dentine slices in 50 ng/ml RANKL and 30 ng/ml M-CSF, or 50 ng/ml RANKL 30 ng/ml and 10 μM K11 compound. After the cells on surfaces of dentine slice were washed, pits were stained with toluidin blue (J. T. Baker, UK, 1 μg/ml). Pits formed on the dentine slices by bone absorption were observed under a microscope and were analyzed.
(§1) In FIG. 3, Veh represents a control group treated with DMSO, RANKL represents a group treated with 50 ng/ml RANKL, K11 represents a group treated with 10 μM K11, R+K11 represents a group treated with 50 ng/ml RANKL following pretreatment with 10 μM K11 for 30 minutes, while * represents p<0.05 compared to Veh and ** represents *: p<0.05 compared to RANKL. N.D.=Not Detectable. FIG. 3A is graphs showing analyzed results of reverse transcription polymerase chain reaction (RT-PCR) performed for measurement of expression levels of osteoclast-specific marker genes (calcitonin receptor, cathepsin K, αv-integrin, β3-integrin, ATP6v0d2, DC-STAMP), FIG. 3B is a view of result of pits formed on dentine slices by bone absorption according to treatment with K11 compound and FIG. 3C is a graph showing analyzed results of the experiment results obtained in FIG. 3B. […]

The test system of another test is NFATc1. Briefly: Western blot analysis of NFATc1 expression. The settings on record: 200 ng/ml RANKL following pretreatment with 10 μM K11 for 30 minutes; FIG. 4. Here is the method:
(§2) After BMM cells treated with reagent were incubated for a predetermined period of time, the BMM cell were lysed in a lysis buffer and centrifuged. Following normalization to BSA (bovine serum albumin) standards, protein concentrations were quantitatively analyzed using a protein assay kit (Bio-Rad). Twenty micrograms of the protein was denatured and separated by SDS-PAGE (poly acrylamide gel electrophoresis) and transferred for 1 hour and 45 minutes onto a PVDF membrane in 80 V. Subsequently, the membrane was blocked with PBST (Phosphate Buffered Saline Tween-20) containing 5% skim milk, followed by reaction with anti-NFATc1 (Nuclear factor of activated T-cells cytoplasmic 1, 1:200, Santa Cruz) antibody or anti-c-fos (1:1000, Cell Signaling) antibody as a primary antibody, respectively (1:200 ratio herein indicated means dilution of 200 times). After the membrane was washed five times with TBST and reacted with HRP (horseradish peroxidase)-conjugated secondary antibody, the protein was visualized using ECL Advance (Amersham Co.) and analyzed.
(§3) In FIGS. 4 and 5, veh represents a control group treated with DMSO, RANKL represents a group treated with 200 ng/ml RANKL, R+K11 represents a group treated with 200 ng/ml RANKL following pretreatment with 10 μM K11 for 30 minutes, while * represents p<0.05 compared to Veh and ** represents *: p<0.05 compared to RANKL.

For test [2], the system named is osteoclast-specific marker genes (calcitonin receptor, cathepsin K, αv-integrin, β3-integrin, ATP6v0d2, DC-STAMP). Briefly: RT-PCR of osteoclast-specific marker genes. Conditions: R+K11: 50 ng/ml RANKL following pretreatment with 10 μM K11 for 30 minutes, compared to RANKL; FIG. 3A. The protocol:
Total RNA isolation was conducted using Easy-blue (Intron Biochemistry, Inc.). cDNA was synthesized from […] of the total RNA using an oligodT primer and 10 mM dNTP, 1 unit of an RNase inhibitor and 4 units of Scrip reverse transcriptase (Fermentas, Life science) at 42° C. for 60 min, followed by termination by heating at 70° C. for 10 min.
as §1

The subject of test [3] is bone marrow cells (BMM), TRAP-positive multinucleated osteoclasts. Briefly: RANKL-induced osteoclast differentiation of BMM, TRAP staining. The settings on record: Mus musculus, 96 h, RANKL and 30 ng/ml M-CSF, 4 days, TRAP-positive cells having 3 or more nuclei, read-out: IC50 (μM), multinucleated osteoclast formation. The text has this:
ICR mice (6˜9 weeks old, male) were sacrificed by cervical dislocation, followed by immersion in 70% ethanol for sterilization. Dissection was made on the tibia skin to remove the muscle attached thereto. The tibia was excised by cutting the distal tibia and dislocating the patella. The tibia were then cut slightly at their opposite ends. A 25-gauge (G) syringe needle was inserted into the bone at one end and α-MEM (Minimum Essential Medium) was infused into the bone through the needle to collect bone marrow cells.
After centrifugation, a cell pellet was suspended in α-MEM and red blood cells in the suspension were removed with two volumes of Gey's solution. After centrifugation, the cell pellet was resuspended in α-MEM supplemented with 10% FBS.
After a primary culture of the bone marrow cells, the bone marrow cells were incubated overnight in 10 ng/ml M-CSF (macrophage colony-stimulating factor) and then for an additional three days in 30 ng/ml M-CSF. After Adhesive cells (BMM) were recovered, ng/ml RANKL and 30 ng/ml M-CSF or ng/ml RANKL, 30 ng/ml M-CSF in combination with various concentrations of the K11, K14, K17, K18, K19, or K22 compound were added to each well plated at a density of 1×10^5 cells/well and each well was incubated for 4 days. The incubated to cells were fixed for 10 min with 10% formalin and then re-fixed for 1 min with ethanol/acetone (1:1(v/v)). The cells were stained for TRAP (tartrate-resistant acid phosphatase). TRAP-positive cells having 3 or more nuclei were evaluated as multinucleated osteoclasts by observation under a microscope, and their IC50 values are given in the following table 1.

The test system of a further test is c-fos. As to the kind of experiment: Western blot analysis of c-fos expression. Conditions: 200 ng/ml RANKL following pretreatment with 10 μM K11 for 30 minutes; FIG. 5. Here is the method: as §2, §3

Take `COc1cc(C(=O)N(C(C)C)C(C)C)ccc1OCCCCCOc1nc2ccccc2s1` [Compound K11, 4-(5-(Benzo[d]thiazol-2-yloxy)pentyloxy)-N,N-diisopropyl-3-methoxybenzamide]: in test [1], the “number of pits on dentine slices” value is reported as “significant reduction”. Moreover, in the test on NFATc1, the “RANKL-induced increase in the expression level of NFATc1” value is “the effect of RANKL was reduced”. The “expression levels of osteoclast-specific marker genes” value in test [2] is “significantly decreased”. Moreover, the IC50 in test [3] turned out to be 1.56 µM. Besides, the “RANKL-induced increase in the expression level of c-fos” value with c-fos is “the effect of RANKL was reduced”.
In the case of `Clc1cccc(OCCCCCOc2nc3ccccc3s2)c1` [Compound K14, 2-(5-(3-chlorophenoxy)pentyloxy)benzo[d]thiazole], the concentration for half-maximal inhibition (IC50) in test [3] was 7.77 µM.
As for `COc1ccccc1OCCCCCOc1nc2ccccc2s1` [Compound K17, 2-(5-(2-Methoxyphenoxy)pentyloxy)benzo[d]thiazole], the IC50 in test [3] worked out at 23.4 µM.
Still for that read-out and setting: the result for `Fc1ccccc1OCCCCCOc1nc2ccccc2s1` [Compound K18, 2-(5-(2-Fluorophenoxy)pentyloxy)benzo[d]thiazole] reads 18.4 µM; that for `c1ccc(OCCCCOc2nc3ccccc3s2)cc1` [Compound K19, 2-(4-Phenoxybutoxy)benzo[d]thiazole], 17.7 µM.
On the same count and under the same terms, the result for `COc1cc(C(=O)N(C(C)C)C(C)C)ccc1OCCCCOc1nc2ccccc2s1` [Compound K22, 4-(4-(Benzo[d]thiazol-2-yloxy)butoxy)-N,N-diisopropyl-3-methoxy Benzamide] reads 2.2 µM.
